Measured values published in patent US20070197552A1, “Method and composition for treatment of diabetes, hypertension, chronic heart failure and fluid retentive states” (Novo Nordisk A/S, priority 2002, published 2007).
Where a name gives a salt, the structure may show the parent alone.

Columns and labels:
[1] = tested on: Non-fasted anaesthetised pigs; assay: In vivo testing of combination treatment: GLP-1 infusion and iv glucose load under DPP IV inhibition, with and without NEP 24.11 inhibition; set-up: species or system pig
Method: Non-fasted anaesthetised pigs (n=5) were given valine-pyrrolidide (250 μmol/kg; V) to inhibit DPP IV activity throughout the experiment. An intraveneous (iv) infusion of GLP-1 (0.75 pmol/kg/min) was started, during which an iv glucose load (0.2 g/kg over 9 min) was given. 90 min after the end of the first GLP-1 infusion, candoxatril was administered iv (5 mg/kg; C), and the protocol (GLP-1 and glucose infusion) was repeated. In addition, during both GLP-1 infusions, simultaneous blood samples were taken from the carotid artery, the renal, femoral, hepatic and portal veins for determination of arterio-venous GLP-1 concentration differences. Samples were analysed for blood glucose, insulin, glucagon and GLP-1 concentrations.

[2] = anaesthetised pigs, iv GLP-1 infusion

Q: Which melting point does the source give for `Cn1c(=O)c2c(nc(N3CC[C@H](N)C3)n2Cc2ccccc2)n(C)c1=O` (as salt: HCl) [Example 3, (S) 8-(3-Aminopyrrolidin-1-yl)-7-benzyl-1,3-dimethyl-3,7-dihydropurine-2,6-dione] here?
A: 166 to 169 °C

Q: For `Cn1c(=O)c2c(nc(N3CC[C@H](N)C3)n2Cc2ccccc2C#N)n(C)c1=O` (as salt: HCl) [Example 8, (S) 2-(8-(3-Aminopyrrolidin-1-yl)-1,3-dimethyl-2,6-dioxo-1,2,3,6-tetrahydropurin-7-ylmethyl)benzonitrile], which melting point is on record?
A: 104 to 117 °C

Q: Which melting point does the source give for `Cn1c(=O)c2c(nc(N3CC[C@H](N)C3)n2Cc2ccccc2Br)n(C)c1=O` (as salt: HCl) [Example 12, (S) 8-(3-Aminopyrrolidin-1-yl)-7-(2-bromobenzyl)-1,3-dimethyl-3,7-dihydropurine-2,6-dione] here?
A: 215 to 217 °C

Q: What does the source list for `CC(C)[C@H](N)C(=O)N1CCCC1` [VP, valine-pyrrolidide]?
A: plasma levels of GLP-1 (plateau level) ([1]; anaesthetised pigs n=5, iv GLP-1 infusion 0.75 pmol/kg/min, valine-pyrrolidide 250 μmol/kg, candoxatril 5 mg/kg iv, FIG. 1): 73 ± 13 pmol/L; glucagon concentrations ([1]; anaesthetised pigs, 20 min period following C administration, before start of the GLP-1 infusion, FIG. 4): 9 ± 2 pmol/L; insulin secretion (AUC27-67 min) ([1]; anaesthetised pigs, GLP-1 and glucose infusion, FIG. 3): 3606 ± 668 pmol·min/L; renal clearance (organ extraction) of GLP-1 ([1]; anaesthetised pigs, calculated from arterio-venous GLP-1 concentration differences): 58.7±4.3%; metabolic clearance rate of GLP-1 [1, 2]: 1.51 ± 0.234 L/h/kg; plasma t½ of GLP-1 [1, 2]: 2.5 ± 0.2 min; glucose excursion (ΔAUC2-77 min) ([1]; anaesthetised pigs, iv glucose load 0.2 g/kg over 9 min during GLP-1 infusion, FIG. 2): 59 ± 4 mmol·min/L; glucose elimination rate ([1]; anaesthetised pigs, iv glucose load during GLP-1 infusion): 6.6±0.5 %/min
